Source: patent US20230263792A1, “USE OF 2,3,5-SUBSTITUTED THIOPHENE COMPOUND FOR PREVENTING, ALLEVIATION, OR TREATING MASTOCYTOSIS” (PHAROS IBIO CO., LTD, priority 2020, published 2023)
pKd: −log10 of the molar value.

Legend:
[1] = test system: inflammatory response caused by mastocytosis (HMC-1.2 mouse model); experiment: Spleen/body weight ratio in mastocytosis mouse model (inflammatory response); format: in vivo, NOD SCID female mice
Protocol: As mice, 6-8-week-old NOD SCID female mice (18 to 22 g) (GemPharmatech Co., Ltd.) were prepared. Mice were acclimatized for 7 days before use in the experiment, and mice with abnormal health were excluded from the experiment. Mice were bred in a cage (300×180×150 mm) at a 22±3° C. and a relative humidity of 40% to 70% with a 12-hr light/12-hr dark cycle. Mice were allowed access to sterilized dry granular food (Beijing Keaoxieli Feed Co., Ltd., Beijing, China) and water ad libitum for the entire experimental period except for the period specified in the protocol.
50 ml of HMC-1.2 cells suspension-cultured in a 75T flask were placed in a conical tube and centrifuged at 1,200 rpm for 2 minutes, centrifuged with DPBS (Dulbecco's Phosphate-Buffered Saline, Welgene) at 1,200 rpm for 2 minutes, washed, and then suspended in RPMI1640 (Welgene) without antibiotics and fetal bovine serum (FBS). Then, the cells were stained with trypan blue, counted with a hemocytometer, and then HMC-1.2 cells (1×10^6) in a mixture of 0.1 ml L-15 and Matrigel (BD, cat. No. 356234) (1:1) were subcutaneously injected into the right flanks of mice anesthetized by intraperitoneal administration of Avertin (250 mg/kg), thus inducing tumors.
(§1) Thereafter, when the average tumor volume reached 150 to 200 mm^3, 4 mice were assigned to each group so that the average tumor volume at each group and treatment time was the same between the groups. Then, each of imatinib at a dose of 90 mg/kg, sunitinib at doses of 20 and 40 mg/kg, and PHI-101 at doses of 7, 20, 40 and 80 mg/kg was administered orally to the mice once daily for 3 weeks. For oral administration, each compound was dissolved in 5% 1-methyl-2-pyrrolidone and then completely mixed in 15% Kolliphor, 30% PEG E400 HS15 and 50% 0.05M citric acid.
Specifically, 3 weeks after administering each drug to the mastocytosis mouse model of Example 3-1, the mice were sacrificed, the body weight and spleen weight were measured using a digital scale, and then the spleen/body weight ratio was calculated.

[2] = Body weight monitoring in mastocytosis mouse model; format: in vivo, NOD SCID female mice; conditions: 80 mg/kg oral once daily for 3 weeks
Protocol: as §1
Specifically, while the presence or absence of abnormalities in the mastocytosis mouse model of Example 3-1 was monitored daily by checking the skin condition, bleeding and stool status, whether the body weight changed was checked by measuring the mouse body weight at intervals of 3 days after the start of oral administration of each drug. In addition, the width and length of the tumor were measured using a caliper at 3-day intervals, and the tumor volume was calculated using the following equation.

KIT (D816V) = target: T1, KIT (D816V) (Homo sapiens, UniProt P10721, D816V); experiment: Kinase binding assay (Kd, qPCR detection)
T1 construct: T7 phage fusion or DNA label for qPCR detection; made in house; host or cells: T7 phage in E. coli BL21-derived host, or HEK-293 cells (both named)
T1 sequence (P10721 26-976 D816V): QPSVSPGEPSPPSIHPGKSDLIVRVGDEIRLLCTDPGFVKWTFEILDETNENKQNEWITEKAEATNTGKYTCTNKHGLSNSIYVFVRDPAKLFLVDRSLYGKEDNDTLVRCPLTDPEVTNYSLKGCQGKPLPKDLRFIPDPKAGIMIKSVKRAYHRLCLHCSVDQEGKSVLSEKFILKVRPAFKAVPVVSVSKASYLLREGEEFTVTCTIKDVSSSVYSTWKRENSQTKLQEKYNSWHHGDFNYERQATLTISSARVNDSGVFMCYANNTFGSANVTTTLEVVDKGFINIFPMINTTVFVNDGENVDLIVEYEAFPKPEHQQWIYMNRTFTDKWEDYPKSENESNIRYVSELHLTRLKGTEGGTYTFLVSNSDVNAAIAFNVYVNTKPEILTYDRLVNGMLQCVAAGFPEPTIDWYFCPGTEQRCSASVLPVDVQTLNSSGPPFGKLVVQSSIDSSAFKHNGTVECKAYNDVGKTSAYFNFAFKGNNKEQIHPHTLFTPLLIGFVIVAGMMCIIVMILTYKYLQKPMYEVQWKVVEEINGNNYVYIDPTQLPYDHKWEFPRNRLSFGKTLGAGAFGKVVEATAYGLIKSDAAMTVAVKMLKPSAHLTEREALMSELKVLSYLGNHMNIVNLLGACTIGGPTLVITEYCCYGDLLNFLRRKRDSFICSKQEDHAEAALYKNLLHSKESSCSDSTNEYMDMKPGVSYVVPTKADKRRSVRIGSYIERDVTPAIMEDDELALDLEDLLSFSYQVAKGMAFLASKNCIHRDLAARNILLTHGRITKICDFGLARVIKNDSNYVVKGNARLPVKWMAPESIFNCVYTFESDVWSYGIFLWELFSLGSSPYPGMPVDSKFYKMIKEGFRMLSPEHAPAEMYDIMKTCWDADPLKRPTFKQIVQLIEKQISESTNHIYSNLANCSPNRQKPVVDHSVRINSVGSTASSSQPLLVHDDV
Protocol: (§2) A kinase-tagged T7 phage strain was prepared from an E. coli host derived from a BL21 strain. E. coli was grown in log-phase, infected with T7 phage, and then incubated with shaking at 32° C. until lysis. The lysates were centrifuged and filtered to remove cell debris. Thereafter, the kinase produced in HEK-293 cells was labeled with DNA for qPCR detection. Streptavidin-coated magnetic beads were treated with biotinylated small molecule ligand for 30 minutes at room temperature to produce affinity resins for kinase assay. The liganded beads were blocked with excess biotin and washed with blocking buffer (SeaBlock(Pierce), 1% BSA, 0.05% Tween 20, 1 mM DTT) to remove unbound ligand and to reduce nonspecific binding. Binding reactions were induced by combining kinase, ligand affinity beads and PHI-101 in 1× binding buffer (20% SeaBlock, 0.17× PBS, 0.05% Tween 20, 6 mM DTT). PHI-101 was prepared as a 111X stock in 100% DMSO. The binding constant (Kd) was determined using an 11-point 3-fold compound dilution series with three DMSO control points. All compounds for Kd measurements were dispensed by acoustic transfer (non-contact dispensing) in 100% DMSO. The compounds were then diluted directly into the assays such that the final concentration of DMSO was 0.9%. All reactions were performed in polypropylene 384-well plates at a final volume of 0.02 ml. The assay plates were incubated at room temperature with shaking for 1 hour and the affinity beads were washed with wash buffer (1× PBS, 0.05% Tween 20). The beads were then re-suspended in elution buffer (1× PBS, 0.05% Tween 20, 0.5 μM non-biotinylated affinity ligand) and incubated at room temperature with shaking for 30 minutes. The kinase concentration in the eluates was measured by qPCR.
(§3) 11-point 3-fold serial dilutions of each test compound were prepared in 100% DMSO at 100×final test concentration and then diluted to 1× in the assay (final DMSO concentration=1%). Most Kd values were determined using a compound top concentration=30,000 nM. If the initial Kd determined was <0.5 nM (lowest concentration tested), the measurement was repeated with a serial dilution starting at a lower top concentration.
(§4) The Kd value of c-kit protein was calculated with a standard dose-response curve (Equation 1) using the Hill equation.
(§5) The Hill Slope was set to −1. Curves were fitted using a non-linear least square fit with the Levenberg-Marquardt algorithm.

KIT (V559D, V654A) = target: T2, KIT (V559D, V654A) (Homo sapiens, UniProt P10721, V559D/V654A); experiment: Kinase binding assay (Kd, qPCR detection)
T2 construct: T7 phage fusion or DNA label for qPCR detection; made in house; host or cells: T7 phage in E. coli BL21-derived host, or HEK-293 cells (both named)
T2 sequence (P10721 26-976 V559D/V654A): as the sequence (P10721 26-976 D816V) above, with V534D, V629A, V791D counted along it
Protocol: as §2, §3, §4, §5

KIT (A829P) = target: T3, KIT (A829P) (Homo sapiens, UniProt P10721, A829P); experiment: Kinase binding assay (Kd, qPCR detection)
T3 construct: T7 phage fusion or DNA label for qPCR detection; made in house; host or cells: T7 phage in E. coli BL21-derived host, or HEK-293 cells (both named)
T3 sequence (P10721 26-976 A829P): as the sequence (P10721 26-976 D816V) above, with V791D, A804P counted along it
Protocol: as §2, §3, §4, §5

KIT (L576P) = target: T4, KIT (L576P) (Homo sapiens, UniProt P10721, L576P); experiment: Kinase binding assay (Kd, qPCR detection)
T4 construct: T7 phage fusion or DNA label for qPCR detection; made in house; host or cells: T7 phage in E. coli BL21-derived host, or HEK-293 cells (both named)
T4 sequence (P10721 26-976 L576P): as the sequence (P10721 26-976 D816V) above, with L551P, V791D counted along it
Protocol: as §2, §3, §4, §5

KIT (D816H) = target: T5, KIT (D816H) (Homo sapiens, UniProt P10721, D816H); experiment: Kinase binding assay (Kd, qPCR detection)
T5 construct: T7 phage fusion or DNA label for qPCR detection; made in house; host or cells: T7 phage in E. coli BL21-derived host, or HEK-293 cells (both named)
T5 sequence (P10721 26-976 D816H): as the sequence (P10721 26-976 D816V) above, with V791H counted along it
Protocol: as §2, §3, §4, §5

KIT (V559D) = target: T6, KIT (V559D) (Homo sapiens, UniProt P10721, V559D); experiment: Kinase binding assay (Kd, qPCR detection)
T6 construct: T7 phage fusion or DNA label for qPCR detection; made in house; host or cells: T7 phage in E. coli BL21-derived host, or HEK-293 cells (both named)
T6 sequence (P10721 26-976 V559D): as the sequence (P10721 26-976 D816V) above, with V534D, V791D counted along it
Protocol: as §2, §3, §4, §5

KIT (V559D, T670I) = target: T7, KIT (V559D, T670I) (Homo sapiens, UniProt P10721, T670I/V559D); experiment: Kinase binding assay (Kd, qPCR detection)
T7 construct: T7 phage fusion or DNA label for qPCR detection; made in house; host or cells: T7 phage in E. coli BL21-derived host, or HEK-293 cells (both named)
T7 sequence (P10721 26-976 V559D/T670I): as the sequence (P10721 26-976 D816V) above, with V534D, T645I, V791D counted along it
Protocol: as §2, §3, §4, §5

[3] = 7 mg/kg oral once daily for 3 weeks
[4] = 20 mg/kg oral once daily for 3 weeks
[5] = 40 mg/kg oral once daily for 3 weeks
[6] = 80 mg/kg oral once daily for 3 weeks

pKd (KIT (D816V)): 8.68
pKd (KIT (V559D, V654A)): 7.59
pKd (KIT (A829P)): 8.89
pKd (KIT (L576P)): 7.41
pKd (KIT (D816H)): 8.32
pKd (KIT (V559D)): 7.80
pKd (KIT (V559D, T670I)): 7.57
SMILES: NC(=O)Nc1cc(C#Cc2cccc(F)c2)sc1C(=O)N[C@H]1CCCNC1 [PHI-101]
Spleen/body weight ratio % of control [1, 3]: 105.0%
Spleen/body weight ratio Inhibition (%) [1, 3]: −5%
Spleen/body weight ratio % of control [1, 4]: 95.0%
Spleen/body weight ratio Inhibition (%) [1, 4]: 5%
Spleen/body weight ratio % of control [1, 5]: 55.7%
Spleen/body weight ratio Inhibition (%) [1, 5]: 44.3%
Spleen/body weight ratio % of control [1, 6]: 46.3%
Spleen/body weight ratio Inhibition (%) [1, 6]: 53.7%
spleen/body weight ratio compared to control group ([1]; 7, 20, 40 and 80 mg/kg, FIGS. 13 and 14): decreased the spleen/body weight ratio in a concentration-dependent manner
weight loss [2]: no weight loss
